# Experimental data reported in patent publication US20260191974A1, “B7-H3 TARGETING LIGANDS AND METHODS OF USE” (The University of North Carolina at Chapel Hill, priority 2022, published 2026).
# Where a SMILES comes first, the peptide text is derived from it. Bridges are numbered along the chain shown (N, C = ends).
# How the values were obtained:
# biotinylated B7-H3 = target: T1, biotinylated B7-H3 (Homo sapiens, UniProt Q5ZPR3); test: Surface Plasmon Resonance (SPR) analysis against biotinylated B7-H3; conditions: biotinylated B7-H3, 25° C., 1:1 binding kinetics model, read-out: binding affinity towards B7-H3
# T1 sequence (Q5ZPR3 29-534): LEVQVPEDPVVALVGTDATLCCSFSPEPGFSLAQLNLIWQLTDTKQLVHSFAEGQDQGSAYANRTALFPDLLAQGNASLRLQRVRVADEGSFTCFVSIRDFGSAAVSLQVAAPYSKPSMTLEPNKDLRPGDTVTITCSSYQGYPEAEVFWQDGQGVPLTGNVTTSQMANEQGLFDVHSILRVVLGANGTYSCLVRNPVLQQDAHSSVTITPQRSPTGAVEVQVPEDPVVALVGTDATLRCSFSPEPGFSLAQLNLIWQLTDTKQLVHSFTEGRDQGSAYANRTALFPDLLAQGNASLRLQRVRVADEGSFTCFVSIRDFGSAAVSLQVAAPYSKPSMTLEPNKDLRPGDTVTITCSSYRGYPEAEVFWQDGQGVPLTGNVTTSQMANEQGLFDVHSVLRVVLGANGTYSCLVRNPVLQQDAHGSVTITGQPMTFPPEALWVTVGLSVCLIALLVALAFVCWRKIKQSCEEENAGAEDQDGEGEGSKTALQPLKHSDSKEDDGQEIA
# Description: (§1) FIGS. 4A-4G. (FIG. 4A) Selection schematic detailing the selection process for identifying binders against B7-H3. (FIG. 4B) qPCR results of the mTG mediated B7-H3 selection. (FIG. 4C) B7-H3 selection results and complete NGS analysis of B7-H3 hits. (FIG. 4D) NGS data of the selection hits. […] Arrow indicates the peptide pursued for binding validation. (FIG. 4E) EIC ([M+2], 948.91 m/z) traces corresponding to the product of the mTG reaction with linear B1.1 peptide and the synthetic lactam, disulfide peptide. (FIG. 4F) Surface Plasmon Resonance (SPR) analysis of the selected peptide (B1.1), the Met9Nle variant, and the linear variant. […] The selected B1.1 and the Met9Nle variant were analyzed at analyte concentrations of 7.5, 15, 30, 60, 120 nM. The linear variant was analyzed at analyte concentrations of 50, 100, 200, 400, 800 nM. […] (FIG. 4G) Individual SPR curves. Fitted curve and raw data are shown.
# (§2) Surface Plasmon Resonance (SPR) analysis. Binding kinetics between our selected peptide (and variants) and biotinylated B7-H3 (B7-H3b) were assessed through SPR analysis using a BIACORE 8K SPR system (GE Healthcare). The running buffer was 1×PBS pH7.5, 0.05% TWEEN® 20 and all analysis was carried out at 25° C. B7-H3b was loaded onto a NeutrAvidin SPR Chip (Series S Sensor Chip NA, 29407997, Cytiva) at a flow rate of […] to a surface density of 1000-1500 response units. Analyte was then injected over a series of five concentrations and quantified by BIACORE single-cycle kinetics method. For our selected peptide (B1.1) and the Met9Nle variant a range of 7.5, 15, 30, 60, 120 nM were run. For the linear variant concentrations of 50, 100, 200, 400, 800 nM were run. Binding sonograms were generated using a standard 1:1 binding kinetics model and kinetics constants determined using standard BIACORE evaluation software.
# murine B7-H3 (mB7-H3) = target: T2, murine B7-H3 (mB7-H3) (Mus musculus, UniProt Q8VE98); test: SPR binding to murine B7-H3
# T2 sequence (Q8VE98 29-316): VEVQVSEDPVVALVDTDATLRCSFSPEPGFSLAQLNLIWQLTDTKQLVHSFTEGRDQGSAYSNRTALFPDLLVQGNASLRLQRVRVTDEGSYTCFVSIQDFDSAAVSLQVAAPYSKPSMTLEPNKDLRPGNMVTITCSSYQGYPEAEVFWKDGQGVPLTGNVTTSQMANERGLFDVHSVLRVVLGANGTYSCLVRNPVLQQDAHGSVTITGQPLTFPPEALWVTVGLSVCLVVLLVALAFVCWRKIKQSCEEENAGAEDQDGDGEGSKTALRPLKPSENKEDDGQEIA
# Experimental: FIGS. 24A-24C. SPR analysis of the selected peptides B1.1 and JP5. The B1.1 variant was analyzed at analyte concentrations of 7.5, 15, 30, 60, and 120 nM (FIG. 24A) and the JP5 variant was analyzed at analyte concentrations of 22.2, 66.6, 200, 600 and 1800 nM (FIG. 24B). (FIG. 24C) Binding kinetics of each peptide.
# as §2
# Surface plasmon resonance was used to evaluate binding of B1.1 and JP5 to both human and murine B7-H3 (FIGS. 24A-24C).
# B7-H3 [1] = test: ka (M^-1s^-1)
# Description: (§3) Table printed on a drawing sheet, FIG. 4F
# Head of the field: ka (M^-1s^-1)
# as §1, with “The patent's description of the figure: FIGS.” for “FIGS.”
# (§4) First copying reader's note: Brackets drawn on the SELECTED and MET9NLE sequences join C to C (above) and Q to K (below), marking a bicyclic peptide; LINEAR has no brackets.
# (§5) Where the first naming reader finds the target: passage: Binding affinities were assessed for each peptide by surface plasmon resonance (SPR) against biotinylated B7-H3.
# B7-H3 [2] = test: kd (s^-1)
# Description: as §3
# Head of the field: kd (s^-1)
# as §1, with “The patent's description of the figure: FIGS.” for “FIGS.”
# as §4, §5
smiles,measurement,setting,value
"CSCC[C@@H]1NC(=O)[C@H](CO)NC(=O)[C@H](Cc2c[nH]cn2)NC(=O)[C@@H]2CSSC[C@H](NC(=O)[C@H]([C@@H](C)O)NC(=O)[C@H](Cc3ccc(O)cc3)NC(=O)[C@H](Cc3ccccc3)NC1=O)C(=O)N[C@H](C(=O)N[C@@H](CO)C(=O)NCC(N)=O)CCCCNC(=O)CC[C@H](NC(=O)[C@H](CC(C)C)NC(=O)[C@H](C)NC(=O)[C@H](Cc1c[nH]c3ccccc13)NC(C)=O)C(=O)N[C@@H](CC(C)C)C(=O)N2 [B1.1, acWALQLCHSMFYTCKSG] (Ac-WALELCHSMFYTCKSG-NH2; lactam 4-14; disulfide 6-13)",Kd,biotinylated B7-H3,0.0435 µM
same,KD,murine B7-H3 (mB7-H3),binds to murine B7-H3
same,ka (M^-1s^-1),B7-H3 [1],1.55e^5
same,kd (s^-1),B7-H3 [2],6.74e^-3
